From PMC4552745, “Novel Gallate Triphenylphosphonium Derivatives with Potent Antichagasic Activity” (PLoS ONE, 2015)

Tests used:
[1] = tested on: Leishmania brasiliensis; set-up: method as in PMID 25144225; conditions: in vitro; cited from earlier work
[2] = tested on: T. cruzi epimastigotes; set-up: method as in PMID 17673202; conditions: cited from earlier work
[3] = tested on: Trypanosoma brucei; set-up: method as in PMID 9657042, PMID 9491765; conditions: Trypanosoma brucei models; cited from earlier work
[4] = tested on: Trypanosoma cruzi; set-up: method as in PMID 2121515; conditions: blood contaminated with Trypanosoma cruzi; cited from earlier work
[5] = tested on: T. cruzi trypomastigotes (Y strain); assay: MTT reduction viability assay on isolated trypomastigotes; type: cell-based, Trypanosoma cruzi; conditions: for EC50: Trypanosoma cruzi, Y strain, 24 hours exposure, MTT assay, mean ± SD, read-out: EC50 T. cruzi trypomastigote; for Selectivity index (VERO/T. cruzi): ratio of EC50 VERO cells to EC50 T. cruzi trypomastigote; for potency relative to nifurtimox: trypomastigote viability, comparison of EC50
Method: (§1) Trypomastigotes (Y strain, DTU T. cruzi II) were obtained from infected VERO cells (Chlorocebus sabaeus kidney fibroblasts obtained from ATCC, ATCC number: CCL-81). The cells were exposed to trypomastigotes (Y strain) at a 3:1 density (trypomastigote:cell). The trypomastigotes were allowed to infect the cells for 24 h, and the supernatant was then extracted. The trypomastigotes were released from VERO cells at 4 days after infection. The parasites were harvested and collected for viability assays. The effect of the drugs on parasite viability was evaluated using the tetrazolium salt (MTT) reduction assay. […] Alternatively, VERO cells attached to the surface of 96-well plates were washed and incubated with MTT (5 mg/mL). After incubation for 4 h at 37°C, the generated formazan crystals were dissolved with 100 μL of 10% (w/v) sodium dodecyl sulfate (SDS) in 0.01 M HCl. The plates were then incubated overnight at 37°C, and the optical density (OD) was determined using a microplate reader (Labsystems Multiskan MS, Finland) at 570 nm. Under these conditions, the OD is directly proportional to the number of viable cells in each well [33, 34]. All of the experiments were performed at least three times. […] The data from each experiment were plotted using the formazan absorbance versus the log of the concentration, and the plot was fitted to the dose-response (four-parameters) equation using the software Graph Pad Prism V5.0, obtaining the EC50 value per drug and per experiment. The data are expressed as the mean ± DS of the EC50s obtained from each experiment.

[6] = tested on: VERO cells; assay: MTT reduction viability assay on VERO cells; type: cell-based; conditions: Chlorocebus sabaeus, 24 hours exposure, mean ± SD
Method: as §1, with “The” for “Trypomastigotes (Y strain, DTU T. cruzi II) were obtained from infected VERO cells (Chlorocebus sabaeus kidney fibroblasts obtained from ATCC, ATCC number: CCL-81). The cells were exposed to trypomastigotes (Y strain) at a 3:1 density (trypomastigote:cell). The trypomastigotes were allowed to infect the cells for 24 h, and the supernatant was then extracted. The trypomastigotes were released from VERO cells at 4 days after infection. The parasites were harvested and collected for viability assays. The”

[7] = tested on: T. cruzi in infected RAW 264.7 cells; assay: Parasite DNA load by real-time PCR in infected RAW cells; type: cell-based, Trypanosoma cruzi; conditions: infected RAW cells, 48 hours after treatment, Fig 4
Source text: DNA from infected RAW cells (murine macrophages, ATCC number: TIB-71) was isolated using Wizard Genomic DNA Purification Kit (Promega, USA) following the manufacturer’s instructions. DNA was quantified through […] absorbance measurements using a Varioskan spectrophotometer (Thermo Scientific, USA). To evaluate the parasite DNA load, we used a TaqMan-Duplex system, as described previously. To amplify an 84-bp T. cruzi satellite DNA sequence, we used the following primers: TcSt 4-Fw (5’-[…]-3’) and TcSt 1-Rev (5’-[…]-3’) and the TcSt-1 probe (5’-FAM-[…]-BHQ-1-3’). As an endogenous control, we used the Mus-F (5’-[…]-3’) and Mus-R (5’-[…]-3’) primers coupled with the MM-1 probe (5’-HEX-AAAGCATCTGCCTCCG-BHQ-1-3’) to amplify a 67-bp Mus musculus GAPDH sequence. The primers and probes were designed using Primer Express 3.0 Software (Applied Biosystems, USA) and manufactured by Integrated DNA Technologies (Coralville, IA, USA). The PCR reactions were performed using an ABI7300 real-time thermocycler (Applied Biosystems, USA). […] ROX was used as a reference dye. For both TaqMan assays, the thermal cycle consisted of a polymerase activation step carried out at 95°C for 10 min (one cycle) and a two-step amplification phase: 95°C for 15 s and 55°C for 45 s (40 cycles). Fluorescence was measured at the end of each amplification cycle. The data were analyzed using 7300 System SDS software with the SDS relative quantitation plug-in (Applied Biosystems, USA). All of the data were analyzed by the 2^-∆∆CT method, comparing the CTs of the T. cruzi gene versus that of GAPDH as well as comparing all of the samples with the controls. The parasite load is expressed as the relative DNA load compared with the controls.

[8] = tested on: T. cruzi trypomastigotes (Y strain) mitochondrial permeability transition pore; assay: Mitochondrial permeability transition pore opening (calcein AM / CoCl2); type: cell-based, Trypanosoma cruzi; conditions: 5 μM, 1 hour, Fig 6B
Method: The opening of mitochondrial permeability transition pores was assessed using the calcein AM probe, adapting the method described by Huang et al (2014). Calcein-AM is a lipophilic probe that can enter the cell, including the mitochondria, and is then cleaved by cellular esterases, releasing the fluorescent probe calcein. T. cruzi trypomastigotes (Y strain, 5 x 10^6 parasites/mL) were stained with 100 nM calcein AM (Molecular Probes, Applied Biosytems, USA) and incubated at 37°C for 15 min in the presence of […] of CoCl2 to quench the cytosolic fluorescence of calcein. Then, the parasites were washed with PBS and resuspended in RPMI medium, without phenol red, supplemented with 0.3 mM of Ca^+2. The parasites were then seeded in 24-well plates and exposed to the different compounds (TPP^+-C8, TPP^+-C10, TPP^+-C11, and TPP^+-C12) at 1 or 5 μM for 1 hour. As a positive control, one group was exposed to ionomycin (0.5 μM). The samples were measured using a FACS Aria III flow cytometer (BD Biosciences, USA) with the 494/517 filter to detect calcein fluorescence. For every measurement, 5,000 events were recorded. The raw flow cytometry data were analyzed using FACSDiva 6.1 software (BD Biosciences). The results were analyzed using the median fluorescence intensity (MFI) from the frequency histograms. Thus, we used the median intensity of the control group (parasites incubated with calcein AM and CoCl2) to establish 100% of mitochondrial fluorescence, thereby establishing percent ratios between the treatment groups and the control.

SMILES | concentration at which the effect on viability is reached [1] | concentration at which the antiproliferative effect is observed [2] | EC50 [3] [µM] | concentration range at which effects are exerted [4] | EC50 [5] [µM] | Selectivity index (VERO/T. cruzi) [5] | EC50 [6] [µM] | potency relative to nifurtimox [5] | parasite load (qPCR) [7] | mitochondrial calcein fluorescence (median fluorescence intensity) [8]
O=C(O[C@@H]1Cc2c(O)cc(O)cc2O[C@@H]1c1cc(O)c(O)c(O)c1)c1cc(O)c(O)c(O)c1 [EGCg, (-)-epigallocatechin 3-O-gallate] | over 60 μM | over 500 μM | – | – | – | – | – | – | – | –
O=C(O)c1cc(O)c(O)c(O)c1 [GA, Gallic acid] | – | – | > 30 | millimolar range | – | – | – | – | – | –
CC1CS(=O)(=O)CCN1/N=C/c1ccc([N+](=O)[O-])o1 (stereo not drawn) [Nifurtimox, reference compound] | – | – | – | – | 4.1 ± 0.9 | > 24 | > 100 | – | – | –
O=C(OCCCCCCCC[P+](c1ccccc1)(c1ccccc1)c1ccccc1)c1cc(O)c(O)c(O)c1.[Br-] [TPP^+-C8, triphenyl(8-((3,4,5-trihydroxybenzoyl)oxy)-octyl) phosphonium bromide] | – | – | – | – | 4.8 ± 0.9 | > 21 | > 100 | almost equal in potency to nifurtimox | the lowest concentrations of TPP^+-C8 increased the parasite load | –
O=C(OCCCCCCCCCCC[P+](c1ccccc1)(c1ccccc1)c1ccccc1)c1cc(O)c(O)c(O)c1.[Br-] [TPP^+-C11, triphenyl(11-((3,4,5-trihydroxybenzoyl)oxy)-undecyl) phosphonium bromide] | – | – | – | – | 9.2 ± 0.1 | > 11 | > 100 | almost equal in potency to nifurtimox | reduced the parasite load in a concentration-dependent manner | 41 % of the control
